Measurements reported in US5830910A (priority 1995, dated 1998).
“Also recorded” adds a separate entry of the source.

Assays:
Assay type in all cases: cell-based, rat
[1] = tested on: cultured hippocampal neurons; settings: 100 nM, added 1 h before 50 μM Aβ; 48 h
[2] = tested on: cultured hippocampal neurons; experiment: iron (FeSO4) neurotoxicity; settings: 100 nM, 1 h preincubation
Source text: (§1) Dissociated embryonic rat hippocampal cell cultures were established and maintained. All procedures conformed with the NIH Guide for the Care and Use of Laboratory Animals and were approved by the University of Kentucky Animal Care and Use Committee. Cultures were maintained on a polyethyleneimine-coated substrate in plastic 35-mm dishes or 96 wall plates (for cell survival studies) or glass-bottom 35-mm dishes (for [Ca^2+ ]i imaging studies). The cell density was ^~ 70-100 cells/mm^2. Cells were maintained in Eagle's minimum essential medium supplemented 10% with fetal bovine serum and containing 20 mM sodium pyruvate. […] Aβ25-35 (Bachem, lot ZJ744) and Aβ1-40 (Bachem, lot ZK600) were stored in the lyophilized form, and stocks were prepared immediately before use by dissolving the peptide at a concentration of 1 mM in sterile distilled water. […] Glutamate and colchicine (Sigma) were prepared as 200-500x stocks in saline. Cytochalasins D and E (Sigma) and calcium ionophore 4-bromo-A23187 (Calbiochem) were prepared as 500x stocks in dimethyl sulfoxide. Vitamin E (α-tocopherol; Sigma) was prepared as a 500x stock in ethanol. Nordihydroguaiaretic acid and FeSo4 were prepared as 500x stocks in sterile water.
(§2) Neuronal survival was quantified by counting viable neurons in the same microscope fields (10x objective) immediately before experimental treatment and at time points after treatment. In addition, cells were grown in 96-well plates and Alamar blue fluorescence (Alamar Laboratories)was quantified by using a fluorescence plate reader. Alamar Blue is a non-fluorescent substrate that, after reduction by cell metabolites, becomes fluorescent. Usually neurons that died in the time intervals (20-48 h) between examination points were absent. Viability of the remaining neurons was assessed by morphological criteria. Neutrons with intact neurites of uniform diameter and a soma with a smooth, round appearance were considered viable, whereas neurons with fragmented neurites and a vacuolated or swollen soma were considered nonviable. Survival values were expressed as percentages of the initial number of neurons present before experimental treatment. Statistical comparisons were made using ANOVA and Scheffe post-hoc tests for pairwise comparisons.
FIG. 8. Cultures were preincubated 1 h in the presence of 0.5% dimethylsulfoxide (control), 100 nM cytochalasin D, 50 μg/ml vitamin E (VitE), or 2 μM nordihydroguairetic acid (NDGA). Cultures were then exposed for 6 h to the indicated concentrations of FeSO4 and neuronal survival was quantified. Values represent the means and SEM of determinations made in four separate cultures. *P<0.001 compared to value for cultures exposed to 100 μM FeSO4 alone.

[3] = tested on: growth cone motility of hippocampal neurons; experiment: growth cone motility
[4] = tested on: cultured hippocampal neurons; experiment: hydrogen peroxide neurotoxicity
Source text: as §1
as §2, with “Usually neurons that died in the time intervals (20-48 h) between examination points were absent.” left out
FIG. 15. […] Cultures were pretreated for 1 h with vehicle (Control), 100 nM cytochalasin D (CyD), or 50 μg/ml vitamin E (vE) and then exposed for 20 h to the indicated concentrations of hydrogen peroxide. Data are mean and SEM values of determinations made in four separate cultures.

[5] = tested on: actin stress fibers in astrocytes; experiment: phalloidin staining of actin stress fibers, astrocytes; settings: 10-1000 nM (FIG. 4A: 100 nM), 3 h
Procedure: Hippocampal cells were exposed to cytochalasin D and then fixed for 30 min in 4% paraformaldehyde/phosphate-buffered saline. Cell membranes were permeabilized by incubating for 5 min in a solution of 0.2% Triton X-100 in phosphate-buffered saline. Cells were then incubated for 30 min in PBS containing 0.005 U/ml fluorescein-phalloidin (Molecular Probes). Cells were rinsed in water and mounted in Vectashield antifade solution (Vector Laboratories) . Fluorescence images were acquired using a Sarastro 2000 confocal laser scanning microscope with a 60x oil-immersion objective. All images were acquired using identical settings for excitation intensity and detector gain.
FIG. 4. (A) Micrographs are confocal laser scanning microscope images of cultured hippocampal cells stained with fluorescein-labeled phalloidin. Cells were exposed for 3 h to either vehicle (control; left) or 100 nM cytochalasin D (right) prior to staining with phalloidin. The top micrographs show several neurons (arrowheads point to neuronal cell bodies); note reduction in phalloidin fluorescence in cytochalasin-treatedneurons.

Row | SMILES | effect on Aβ neurotoxicity [1] | effect on neuronal loss induced by iron [2] | growth cone motility [3] | effect on neuronal killing by hydrogen peroxide ([4]; 100 nM, 1 h pretreatment, 20 h) | antioxidant activity ([4]; suggested from hydrogen peroxide test) | actin stress fibers in astrocytes [5]
1 | COc1cc2c(c(OC)c1OC)-c1ccc(OC)c(=O)cc1[C@@H](NC(C)=O)CC2 [Colchicine, colchicine, reference compound] | did not protect neurons against Aβ toxicity | – | – | – | – | –
2 | C=C1[C@@H](C)[C@H]2[C@H](Cc3ccccc3)NC(=O)[C@]23[C@H](OC(C)=O)/C=C/[C@@](C)(O)C(=O)[C@@H](C)C/C=C/[C@H]3[C@@H]1O [Cytochalasin D, cytochalasin D] | – | not significantly altered | inhibit growth cone motility | not altered; also recorded: does not protect neurons against hydrogen peroxide toxicity | little or no antioxidant activity | loss of actin stress fibers in astrocytes; also recorded: loss of stress fibers and cell rounding
